These results are taken from US11090318B2, “Wound healing promoter” (NAHLS CORPORATION CO., LTD., priority 2017, dated 2021).

Structures can show the parent of a compound that is named as a salt.

For assay [1], the system named is Mouse fetus-derived fibroblasts. Nature of the assay: Gene expression in fibroblasts with or without TGF-β (real-time PCR). The following applies: for PDLIM2 gene expression: 10 μg/mL, FIG. 6. In kind it is cell-based. The protocol: Mouse fetus-derived fibroblasts were spread or inoculated in a 10% FCS-containing Dulbecco's modified Eagle medium (DMEM) and cultured for 24 hours. The 10% FCS-containing DMEM was then removed, and a fresh DMEM devoid of FCS was added, followed by cultivation for further 24 hours. Next, the DMEM containing the cells was combined with Nahlsgen or D-AP6 obtained in Preparation Example 1 to a concentration of 10 μg/mL, cultured for 5 hours, further combined with TGF-β, and cultured for further 5 hours. After the cultivation, RNAs or proteins were recovered, and the quantities of MMP3, MMP9, MMP13, FGF, TGF-β, amphiregulin, PDLIM2, and hyaluronic acid (HSA2) were determined using the real-time PCR technique.
For orientation: In qPCR the cycle at which signal appears reflects the starting amount.

Assay [2] has as its system domestic dog affected by conjunctivitis. The assay can be described thus: Eye drops in a domestic dog affected by conjunctivitis. The note with it: antibiotic alone by instillation twice a day for one year or longer, before preparation (6). The class given is in vivo. The protocol:
The pharmaceutical preparation (6) was administered as drops to the eyes of a domestic dog affected by conjunctivitis, and 30 minutes later an antibiotic (cefmenoxime hydrochloride 0.5%) was administered as drops to the eyes. This process was repeated twice a day for 5 days.
The domestic dog had suffered from signs of dry eye syndrome and often undergone conjunctivitis resulting from bacterial infection.

Where [3] appears, read: 10 μg/mL together with TGF-β, compared with TGF-β alone.
The mark [4] stands for this setting: substance added alone, Nahlsgen or D-AP6 10 μg/mL.

`N[C@H](CCCCP(=O)(O)O)C(=O)O` [D-AP6, D-2-amino-6-phosphonohexanoic acid monohydrate]: in assay [1] (setting [3]), the “expression of FGF” value is listed as “significantly increased the expression levels as compared with the addition of TGF-β alone”, the “expression of MMP3” value was “significantly increased the expression levels as compared with the addition of TGF-β alone”, the “expression of MMP9” value is given as “significantly increased the expression levels as compared with the addition of TGF-β alone” and the “expression of MMP13” value was “significantly increased the expression levels as compared with the addition of TGF-β alone”. In assay [1] (setting [3]), the “expression of TGF-β” value is “significantly increased the expression levels as compared with the addition of TGF-β alone”, the expression of amphiregulin entry is given as “significantly increased the expression levels as compared with the addition of TGF-β alone” and the “expression of hyaluronic acid” value is reported as “significantly increased the expression levels as compared with the addition of TGF-β alone”. Moreover, in assay [1], the PDLIM2 gene expression entry was “reduced PDLIM2 gene expression”. In addition, in assay [1] (setting [4]), the “expression of FGF” value is on record as “approximately no change in the expression levels”, the “expression of MMP3” value is “approximately no change in the expression levels”, the “expression of MMP9” value is “approximately no change in the expression levels” and the “expression of MMP13” value is “approximately no change in the expression levels”. In addition, in assay [1] (setting [4]), the “expression of TGF-β” value is listed as “approximately no change in the expression levels”, the expression of amphiregulin result is on record as “approximately no change in the expression levels” and the “expression of hyaluronic acid” value was “approximately no change in the expression levels”.

For the compound `COP(=O)(CCC(N)C(=O)O)Oc1cccc(CC(=O)O)c1` (centres unmarked) [Nahlsgen], in assay [1] (setting [3]), the “expression of FGF” value is “significantly increased the expression levels as compared with the addition of TGF-β alone”, the “expression of MMP3” value is reported as “significantly increased the expression levels as compared with the addition of TGF-β alone”, the “expression of MMP9” value is “significantly increased the expression levels as compared with the addition of TGF-β alone” and the “expression of MMP13” value is “significantly increased the expression levels as compared with the addition of TGF-β alone”. In assay [1] (setting [3]), the “expression of TGF-β” value is listed as “significantly increased the expression levels as compared with the addition of TGF-β alone”, the expression of amphiregulin result is listed as “significantly increased the expression levels as compared with the addition of TGF-β alone” and the “expression of hyaluronic acid” value was “significantly increased the expression levels as compared with the addition of TGF-β alone”. For the same compound, the PDLIM2 gene expression entry in assay [1] is “reduced PDLIM2 gene expression”. In addition, in assay [1] (setting [4]), the “expression of FGF” value is “approximately no change in the expression levels”, the “expression of MMP3” value is reported as “approximately no change in the expression levels”, the “expression of MMP9” value is on record as “approximately no change in the expression levels” and the “expression of MMP13” value is “approximately no change in the expression levels”. Besides, in assay [1] (setting [4]), the “expression of TGF-β” value is on record as “approximately no change in the expression levels”, the expression of amphiregulin entry was “approximately no change in the expression levels” and the “expression of hyaluronic acid” value is given as “approximately no change in the expression levels”.

Turning to `CO/N=C(\C(=O)N[C@@H]1C(=O)N2C(C(=O)O)=C(CSc3nnnn3C)CS[C@H]12)c1csc(N)n1` [antibiotic, cefmenoxime hydrochloride], the curative effects result in assay [2] is on record as “failed to enjoy curative effects”.

Turning to TGF-β [reference compound], in assay [1] (setting [4]), the “expression of FGF” value is recorded as “increased the expression”, the “expression of MMP3” value was “increased the expression”, the “expression of MMP9” value is “increased the expression” and the “expression of MMP13” value is listed as “increased the expression”. In assay [1] (setting [4]), the “expression of TGF-β” value is reported as “increased the expression”, the expression of amphiregulin entry was “increased the expression” and the “expression of hyaluronic acid” value is reported as “increased the expression”.
